The values that follow come from patent publication US12479823B2, “Compound for use in retinal diseases” (ZHUHAI UNITED LABORATORIES CO., LTD., priority 2018, dated 2025).

Usually IC50 stands for the concentration needed to halve the response being measured. A lower IC50 goes with greater potency in that assay.

SMILES strings stand for the structures. Where two headings read alike, the source gives them in different places.

Series [1] can be described thus: In vitro aldehyde capture capacity test (complexing with nonanal, HPLC at 254 nm). To be noted: for Area under the curve AUC / Slope (linear equation of percentage content of complexed products vs time): nonanal 1.0 eq, compound 1.0 eq, 20-23° C., 10-300 min, HPLC 254 nm; for Slope (linear equation of percentage content of complexed products vs time): in %/min. On the procedure:
Objective: dry eye disease is caused by inflammation in eyes, wherein the inflammation may produce aldehydes that will accelerate the inflammation symptoms and worsen the dry eye disease if not eliminated in time. In the experiment, a better compound was selected according to the complexing capacity of the drug and aldehydes in vivo by simulating the in vivo environment.
Procedures: Sulfobutyl-B-cyclodextrin (310 mg) was dissolved in a phosphate buffer (1.25 mL) to prepare a solution.
Nonanal (5.0 mg, 32 μmol, 1.0 eq) and triolein (300 mg) were added to a reaction flask at room temperature, after addition of the prepared solution described above, linoleic acid (300 mg) was added, and finally a dimethyl sulfoxide (0.15 ml) solution containing the compound (32 μmol, 1.0 eq) of the present disclosure was added; the reaction solution was reacted at 20-23° C.
The reaction solution was reacted under stirring for 10 min, 100 min, 200 min, and 300 min respectively, and sampled for high performance liquid chromatography after the solution was stratified after standing for 2 min.
Sampling method: 25 μl of an upper emulsified layer and 50 μl of a lower aqueous phase were sampled by a pipette, and samples were diluted with 1 mL of methanol.
The ultraviolet absorption of the nonanal was weak at 254 nm, so the nonanal had little overall effect on the content of complexed products. Therefore, the percentage contents of complexes at 254 nm under high performance liquid chromatography were compared to observe aldehyde capture and complexing capacities, as shown in FIG. 1 and Table 1:
Taking The compound 7 as an example, after 300 min of reaction, the analytical method for HPLC was XBRIGE 2.5 μm, 3.0*100 mm 5-80CD_XBEH_12 min_0.8.1 cm;
Retention time 6.689 min, 6.787 min, 6.966 min, and 7.102 min were absorption peaks of products complexed with monomolecular aldehyde;
Retention time 8.905 min, 9.010 min, and 9.075 min were absorption peaks of products complexed with bimolecular aldehyde.

A short description of series [2]: Corneal and plasma drug concentration after eye drops in rats. The following applies: for entry into the cornea by eye drops: SD rats, result in words. The class given is in vivo. The protocol:
Objective: To Study the Ratio of Corneal to Plasma Drug Concentration After Eye Drops in Rats
Experimental Materials: Male SD Rats, 200-300 g, 7-9 weeks old, Shanghai Lingchang
Experimental procedures: The candidate compound was prepared as a clear solution, and administered to SD rats by eye drops. The vehicle for eye drops was 10% hydroxypropyl β-cyclodextrin aqueous solution, and the drug concentration in the eye drops was 5 mg/mL. Corneal and whole blood samples were collected at 1 and 4 hours, respectively. The corneal samples was homogenized in 15 mM phosphate buffer (PBS): MeoH (2:1, v: v) buffer, the whole blood samples were centrifuged at 3000 r for 10 min, and the supernatant plasma samples were separated. 20 μL of the plasma samples and homogenate samples were mixed with 400 μL of acetonitrile precipitated proteins containing an internal standard, respectively, and 2 μL of the supernatant was injected by centrifugation. The plasma concentrations were quantified by LC-MS/MS analysis; the drug concentrations in the cornea and plasma were measured respectively according to different time points, and the ratio of corneal/plasma concentrations was calculated.

In the next series the target is T1, CYP1A2 (Homo sapiens, UniProt P05177).
T1 construct: fused human liver microsomes were selected as a CYP450 enzyme source; from tissue; host or cells: pooled ("fused") human liver microsomes
T1 sequence (P05177 1-516): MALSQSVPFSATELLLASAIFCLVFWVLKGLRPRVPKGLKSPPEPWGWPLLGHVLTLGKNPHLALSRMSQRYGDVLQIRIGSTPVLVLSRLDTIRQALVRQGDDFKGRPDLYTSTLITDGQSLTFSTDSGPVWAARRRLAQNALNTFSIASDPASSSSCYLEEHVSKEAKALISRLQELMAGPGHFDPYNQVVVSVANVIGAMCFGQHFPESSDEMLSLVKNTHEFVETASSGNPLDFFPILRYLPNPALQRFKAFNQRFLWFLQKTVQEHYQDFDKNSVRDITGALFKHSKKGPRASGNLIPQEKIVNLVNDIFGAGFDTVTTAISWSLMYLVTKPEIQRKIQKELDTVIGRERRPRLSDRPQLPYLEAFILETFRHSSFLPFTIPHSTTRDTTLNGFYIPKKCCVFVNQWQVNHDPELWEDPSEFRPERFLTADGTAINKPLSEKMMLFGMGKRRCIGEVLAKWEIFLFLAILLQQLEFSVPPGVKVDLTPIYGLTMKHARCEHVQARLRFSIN
Put plainly: Inhibition of human liver microsomal cytochrome P450 CYP1A2. The following applies: human liver microsomes, probe substrate, NADPH. The class given is in vitro ADME. An excerpt:
(§1) Objective: To study the inhibitory effect of compounds on human liver microsomal cytochrome P450. Experimental procedures: In the study on inhibition of the compounds on the human liver microsomal cytochrome P450 (CYP1A2, CYP2C9, CYP2C19, CYP2D6 and CYP3A4), fused human liver microsomes were selected as a CYP450 enzyme source. […]
(Liver microsomes are vesicles of endoplasmic reticulum, rich in cytochrome P450 enzymes.)

Another series addresses T2, CYP2C9 (Homo sapiens, UniProt P11712).
T2 construct: fused human liver microsomes were selected as a CYP450 enzyme source; from tissue; host or cells: pooled ("fused") human liver microsomes
Put plainly: Inhibition of human liver microsomal cytochrome P450 CYP2C9. Format: in vitro ADME. To be noted: human liver microsomes, probe substrate, NADPH.
Source text: as §1

For another series, the target named is T3, CYP2C19 (Homo sapiens, UniProt P33261).
T3 construct: fused human liver microsomes were selected as a CYP450 enzyme source; from tissue; host or cells: pooled ("fused") human liver microsomes
Put plainly: Inhibition of human liver microsomal cytochrome P450 CYP2C19. Format: in vitro ADME. To be noted: human liver microsomes, probe substrate, NADPH.
Source text: as §1

Another series addresses T4, CYP2D6 (Homo sapiens, UniProt P10635).
T4 construct: fused human liver microsomes were selected as a CYP450 enzyme source; from tissue; host or cells: pooled ("fused") human liver microsomes
Kind of series: Inhibition of human liver microsomal cytochrome P450 CYP2D6. The following applies: human liver microsomes, probe substrate, NADPH. Format: in vitro ADME.
Source text: as §1

The target of the next series is T5, CYP3A4 (Homo sapiens, UniProt P08684).
T5 construct: fused human liver microsomes were selected as a CYP450 enzyme source; from tissue; host or cells: pooled ("fused") human liver microsomes
Put plainly: Inhibition of human liver microsomal cytochrome P450 CYP3A4. Format: in vitro ADME. The following applies: human liver microsomes, two probe substrates, NADPH.
Source text: as §1

T2 sequence (P11712 whole entry, the tested form may be a part): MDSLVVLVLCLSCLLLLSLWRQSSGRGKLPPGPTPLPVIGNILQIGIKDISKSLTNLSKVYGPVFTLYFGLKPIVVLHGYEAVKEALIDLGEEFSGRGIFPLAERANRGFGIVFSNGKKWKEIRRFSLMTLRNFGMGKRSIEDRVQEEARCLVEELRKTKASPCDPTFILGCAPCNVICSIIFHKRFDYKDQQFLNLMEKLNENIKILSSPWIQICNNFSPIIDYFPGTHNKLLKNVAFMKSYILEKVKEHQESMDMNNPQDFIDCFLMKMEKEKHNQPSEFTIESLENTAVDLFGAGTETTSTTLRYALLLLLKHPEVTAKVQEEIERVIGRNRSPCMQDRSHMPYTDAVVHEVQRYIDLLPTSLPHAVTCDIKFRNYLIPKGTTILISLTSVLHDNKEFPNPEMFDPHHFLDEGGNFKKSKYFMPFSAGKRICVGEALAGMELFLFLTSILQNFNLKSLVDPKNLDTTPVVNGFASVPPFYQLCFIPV
T5 sequence (P08684 whole entry, the tested form may be a part): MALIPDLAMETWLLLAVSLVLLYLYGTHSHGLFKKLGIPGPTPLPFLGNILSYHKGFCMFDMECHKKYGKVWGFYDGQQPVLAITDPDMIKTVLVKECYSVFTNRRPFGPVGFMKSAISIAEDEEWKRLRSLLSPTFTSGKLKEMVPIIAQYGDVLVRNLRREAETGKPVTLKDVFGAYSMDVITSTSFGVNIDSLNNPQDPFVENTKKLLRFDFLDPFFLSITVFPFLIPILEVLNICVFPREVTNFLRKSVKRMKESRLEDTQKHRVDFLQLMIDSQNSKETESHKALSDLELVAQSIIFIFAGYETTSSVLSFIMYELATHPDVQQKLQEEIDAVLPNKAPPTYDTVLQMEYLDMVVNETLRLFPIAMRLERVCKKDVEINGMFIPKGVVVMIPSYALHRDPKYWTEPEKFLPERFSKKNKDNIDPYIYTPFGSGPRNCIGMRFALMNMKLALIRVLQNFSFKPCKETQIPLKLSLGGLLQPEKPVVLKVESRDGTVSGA
T4 sequence (P10635 whole entry, the tested form may be a part): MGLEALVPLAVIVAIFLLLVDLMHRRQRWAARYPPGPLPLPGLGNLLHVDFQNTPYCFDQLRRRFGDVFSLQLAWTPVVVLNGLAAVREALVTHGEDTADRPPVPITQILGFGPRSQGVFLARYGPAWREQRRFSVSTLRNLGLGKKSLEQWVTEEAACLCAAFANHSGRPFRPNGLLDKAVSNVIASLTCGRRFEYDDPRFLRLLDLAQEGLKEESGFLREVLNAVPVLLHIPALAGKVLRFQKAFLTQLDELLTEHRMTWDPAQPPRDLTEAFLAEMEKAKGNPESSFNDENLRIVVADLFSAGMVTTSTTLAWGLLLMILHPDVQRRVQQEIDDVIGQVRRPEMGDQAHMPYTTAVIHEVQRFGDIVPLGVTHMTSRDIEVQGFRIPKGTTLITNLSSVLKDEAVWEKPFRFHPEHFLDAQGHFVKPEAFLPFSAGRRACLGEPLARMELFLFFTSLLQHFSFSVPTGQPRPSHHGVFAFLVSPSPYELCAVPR
T3 sequence (P33261 whole entry, the tested form may be a part): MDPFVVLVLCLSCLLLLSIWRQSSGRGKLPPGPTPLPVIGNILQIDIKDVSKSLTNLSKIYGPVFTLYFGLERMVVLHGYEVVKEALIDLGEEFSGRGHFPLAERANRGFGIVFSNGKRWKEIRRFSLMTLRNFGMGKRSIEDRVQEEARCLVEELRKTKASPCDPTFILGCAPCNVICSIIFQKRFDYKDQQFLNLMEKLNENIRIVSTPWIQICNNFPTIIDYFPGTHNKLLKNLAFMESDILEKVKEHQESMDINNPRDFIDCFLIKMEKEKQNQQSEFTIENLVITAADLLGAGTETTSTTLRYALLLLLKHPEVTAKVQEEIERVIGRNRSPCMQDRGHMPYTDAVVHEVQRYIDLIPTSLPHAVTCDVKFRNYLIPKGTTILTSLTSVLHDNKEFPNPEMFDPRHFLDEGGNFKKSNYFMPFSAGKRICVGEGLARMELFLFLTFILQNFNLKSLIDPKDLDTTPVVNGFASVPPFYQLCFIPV

Regarding `CC(C)(O)c1nc(-c2ccc(N)c(C(C)(C)O)n2)ccc1N` [Compound 1], the “percentage content of complexed products at 254 nm” value (“percentage content … at 254 nm” below) is recorded as 0.917% in series [1] (Time 10 min), 4.909% in series [1] (Time 100 min), 4.383% in series [1] (Time 200 min) and 6.224% in series [1] (Time 300 min). Moreover, the “Area under the curve AUC” value in series [1] was 1257 min. Conversion. The “Slope (linear equation of percentage content of complexed products vs time)” value in series [1] was 0.0157.
Take `CC(C)(O)c1nc(Oc2ccc(N)c(C(C)(C)O)n2)ccc1N` [Compound 2]: the “percentage content … at 254 nm” value came out at 2.658% in series [1] (Time 10 min), 4.097% in series [1] (Time 100 min), 4.721% in series [1] (Time 200 min) and 5.796% in series [1] (Time 300 min). Besides, in series [1], the “Area under the curve AUC” value was 1271 min. Conversion. In series [1], the “Slope (linear equation of percentage content of complexed products vs time)” value is listed as 0.0103.
As for `CC(C)(O)c1ncc(-c2cnc(C(C)(C)O)c(N)c2)cc1N` [Compound 4], the “percentage content … at 254 nm” value worked out at 1.475% in series [1] (Time 10 min), 7.663% in series [1] (Time 100 min), 13.353% in series [1] (Time 200 min) and 18.636% in series [1] (Time 300 min). The “Area under the curve AUC” value in series [1] worked out at 3061 min. Conversion. Further, the “Slope (linear equation of percentage content of complexed products vs time)” value in series [1] is recorded as 0.0589.
With `CC(C)(O)c1cc(F)c(Oc2ccc(N)c(C(C)(C)O)n2)cc1N` [Compound 6], the “percentage content … at 254 nm” value amounted to 9.738% in series [1] (Time 10 min), 27.850% in series [1] (Time 100 min), 37.847% in series [1] (Time 200 min) and 41.686% in series [1] (Time 300 min). Moreover, in series [1], the “Area under the curve AUC” value stood at 8953 min. Conversion. Also, in series [1], the “Slope (linear equation of percentage content of complexed products vs time)” value came out at 0.1083.
`CC(C)(O)c1cc(F)c(-c2cnc(C(C)(C)O)c(N)c2)cc1N` [Compound 7]: the “percentage content … at 254 nm” value in series [1] (Time 10 min) is 6.634%; in series [1] (Time 100 min) it was 20.013%; in series [1] (Time 200 min), 29.424%; in series [1] (Time 300 min), 36.039%. Further, the “Area under the curve AUC” value in series [1] is 6944 min. Conversion. Besides, the “Slope (linear equation of percentage content of complexed products vs time)” value in series [1] amounted to 0.1002. For the same molecule, the “entry into the cornea by eye drops” value in series [2] was “could enter the cornea by eye drops”.
In the case of `CC(C)(O)c1cc(Cl)c(-c2cnc(C(C)(C)O)c(N)c2)cc1N` [Compound 8], the “percentage content … at 254 nm” value is reported as 4.117% in series [1] (Time 10 min), 12.121% in series [1] (Time 100 min), 15.49% in series [1] (Time 200 min) and 19.873% in series [1] (Time 300 min). In addition, in series [1], the “Area under the curve AUC” value was 3879 min. Conversion. For the same molecule, in series [1], the “Slope (linear equation of percentage content of complexed products vs time)” value was 0.0519. The IC50 against CYP1A2, against CYP2C9, against CYP2C19, against CYP2D6 and against CYP3A4 was > 50 µM each time. Also, the “entry into the cornea by eye drops” value in series [2] is recorded as “could enter the cornea by eye drops”. Also, the concentration at 1 h in series [2] (male, Sprague-Dawley (SD), rat, cornea, topical, eye drops 5 mg/mL, 1 h, read-out: Corneal Concentration) came to 1660 nM; in series [2] (male, Sprague-Dawley (SD), rat, plasma, topical, eye drops 5 mg/mL, 1 h, read-out: Plasma Concentration), 148 nM. Moreover, the concentration at 4 h in series [2] (male, Sprague-Dawley (SD), rat, cornea, topical, eye drops 5 mg/mL, 4 h, read-out: Corneal Concentration) was determined as 167 nM; in series [2] (male, Sprague-Dawley (SD), rat, plasma, topical, eye drops 5 mg/mL, 4 h, read-out: Plasma Concentration), 36.4 nM. Moreover, the Kp at 1 h in series [2] (male, Sprague-Dawley (SD), rat, cornea/plasma, topical, eye drops 5 mg/mL, 1 h, read-out: Corneal Concentration/Plasma Concentration C/P ratio) worked out at 12. For the same molecule, in series [2] (male, Sprague-Dawley (SD), rat, cornea/plasma, topical, eye drops 5 mg/mL, 4 h, read-out: Corneal Concentration/Plasma Concentration C/P ratio), the Kp at 4 h stood at 3.72.
For `CC(C)(O)c1ccc(-n2cc(C(C)(C)O)c(N)cc2=O)cc1N` [Compound 9], the “percentage content … at 254 nm” value is listed as 12.268% in series [1] (Time 10 min), 31.427% in series [1] (Time 100 min), 43.086% in series [1] (Time 200 min) and 48.761% in series [1] (Time 300 min). Besides, the “Area under the curve AUC” value in series [1] is listed as 10284 min. Conversion. Moreover, the “Slope (linear equation of percentage content of complexed products vs time)” value in series [1] came out at 0.1241.
